The values below come from US11787796B2, “Plasma Kallikrein inhibitors and uses thereof” (Takeda Pharmaceutical Company Limited, priority 2019, dated 2023).

Chain of human activated kallikrein enzyme (P03952 391-638): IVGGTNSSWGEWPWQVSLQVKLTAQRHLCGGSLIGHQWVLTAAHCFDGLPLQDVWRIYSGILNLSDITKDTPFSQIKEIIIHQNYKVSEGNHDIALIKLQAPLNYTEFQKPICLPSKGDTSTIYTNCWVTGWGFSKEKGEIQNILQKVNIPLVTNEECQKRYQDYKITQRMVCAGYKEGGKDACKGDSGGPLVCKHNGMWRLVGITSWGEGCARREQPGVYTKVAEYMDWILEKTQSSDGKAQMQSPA
Chain of human activated kallikrein enzyme (P03952 20-390 partner): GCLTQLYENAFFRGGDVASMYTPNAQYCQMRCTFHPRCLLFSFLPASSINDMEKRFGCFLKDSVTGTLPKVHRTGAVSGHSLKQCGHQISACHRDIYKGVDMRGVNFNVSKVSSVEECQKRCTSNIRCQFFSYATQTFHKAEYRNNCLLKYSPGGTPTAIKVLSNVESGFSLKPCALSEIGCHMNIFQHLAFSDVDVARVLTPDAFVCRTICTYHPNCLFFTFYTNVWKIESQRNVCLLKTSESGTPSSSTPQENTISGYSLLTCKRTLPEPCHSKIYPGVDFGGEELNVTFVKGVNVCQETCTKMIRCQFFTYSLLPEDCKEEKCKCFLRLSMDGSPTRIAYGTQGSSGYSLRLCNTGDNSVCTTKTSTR

This assay concerns the target human activated kallikrein enzyme (Homo sapiens (Human), UniProt P03952). Put plainly: Plasma kallikrein inhibition assay with fluorogenic peptide substrate, 500 pM activated kallikrein format. The conditions noted are these: 500 pM activated kallikrein; 300 uM Pro-Phe-Arg-7-amido-4-methylcoumarin substrate; 30 min preincubation, 10 min reaction at RT; read-out: Primary Dose Response Assay: Average EC50. The assay is classed as biochemical. The essentials: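 Pro-Phe-Arg-7-amido-4-methylcoumarin substrate (300 uM) started reactions after a 30 min RT enzyme–inhibitor preincubation. This format used 500 pM activated human kallikrein in Tris pH 7.5 buffer with EDTA, NaCl, PEG-400 and Triton X-100. AMC fluorescence (380/460 nm) was measured after 10 min at RT.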
For `O=C(NC1Cc2ccc(Cl)cc21)c1cn(Cc2cn3cc(C4CC4)ccc3n2)nn1` (centres unmarked) [Example I-151, N-(4-chlorobicyclo[4.2.0]octa-1(6),2,4-trien-7-yl)-1-((6-cyclopropylimidazo[1,2-a]pyridin-2-yl)methyl)-1H-1,2,3-triazole-4-carboxamide], the EC50 – broadly, the concentration needed to bring the measured effect to its halfway point – lay within 100 to 2000 nM.

For the compound `O=C(NCc1nccc(OC(F)F)c1F)c1cn(Cc2cn3cc(C4CC4)cc(N4CCN(CC(F)(F)F)CC4)c3n2)nn1` [Example I-152, 1-((6-cyclopropyl-8-(4-(2,2,2-trifluoroethyl)piperazin-1-yl)imidazo[1,2-a]pyridin-2-yl)methyl)-N-((4-(difluoromethoxy)-3-fluoropyridin-2-yl)methyl)-1H-1,2,3-triazole-4-carboxamide], the EC50 fell in the range of 100 to 2000 nM.

Regarding `CN1CCN(c2cc(C3CC3)cn3cc(Cn4cc(C(=O)NCc5nccc(OC(F)F)c5F)nn4)nc23)CC1` [Example I-153], the half-maximal effective concentration (EC50) was 1 to 10 nM.

For the compound `Cc1[nH]nc2c1CC[C@H]2NC(=O)c1cn(Cc2cn3cc(C4CC4)ccc3n2)nn1` [Example I-154], the EC50 is 1 to 10 nM.

With `Cc1[nH]nc2c1CC[C@H]2NC(=O)c1cnn(Cc2cn3cc(C4CC4)ccc3n2)c1` [Example I-155], the EC50 lay in the range of 1 to 10 nM.
